The compounds below were run on Mycobacterium tuberculosis (assay: Antitubercular activity against Mycobacterium tuberculosis H37Rv ATCC 27294).
Type: functional
Set-up: concentration or dose not given beside the values; unit not given here

Row | SMILES | Inhibition
1 | CC1=C(C(=O)Nc2ccc(C)cc2C)C(c2ccccc2)C(C(=O)Nc2ccc(C)cc2C)=C(C)N1 | -0.865
2 | COc1ccc(C2C(C(=O)Nc3ccc(Cl)cc3)=C(C)NC(C)=C2C(=O)Nc2ccc(Cl)cc2)c(O)c1 | 0.63
3 | CC1=C(C(=O)Nc2ccc([N+](=O)[O-])cc2)C(c2ccc(Cl)cc2Cl)C(C(=O)Nc2ccc([N+](=O)[O-])cc2)=C(C)N1 | 1.3802
4 | CC1=C(C(=O)Nc2ccccc2Cl)C(c2ccccc2S)C(C(=O)Nc2ccccc2Cl)=C(C)N1 | -0.954
5 | CSc1ccc(C2C(C(=O)Nc3ccc(C)cc3C)=C(C)NC(C)=C2C(=O)Nc2ccc(C)cc2C)cc1 | 0.158
6 | CC1=C(C(=O)Nc2cccc([N+](=O)[O-])c2)C(c2ccccc2)C(C(=O)Nc2cccc([N+](=O)[O-])c2)=C(C)N1 | 1.1949
7 | CC1=C(C(=O)Nc2ccccc2Cl)C(c2ccc(Cl)cc2Cl)C(C(=O)Nc2ccccc2Cl)=C(C)N1 | -0.9079
8 | CC1=C(C(=O)Nc2ccc(C)cc2C)C(c2cccc([N+](=O)[O-])c2)C(C(=O)Nc2ccc(C)cc2C)=C(C)N1 | 0.0521
9 | CC1=C(C(=O)Nc2cccc([N+](=O)[O-])c2)C(c2ccccc2Cl)C(C(=O)Nc2cccc([N+](=O)[O-])c2)=C(C)N1 | 1.5096
10 | CC1=C(C(=O)Nc2ccccc2Cl)C(c2ccccc2O)C(C(=O)Nc2ccccc2Cl)=C(C)N1 | -1.1949
11 | COc1ccc(C2C(C(=O)Nc3ccccc3Cl)=C(C)NC(C)=C2C(=O)Nc2ccccc2Cl)cc1 | -0.3679
12 | CC1=C(C(=O)Nc2ccc(Cl)cc2)C(c2cccc([N+](=O)[O-])c2)C(C(=O)Nc2ccc(Cl)cc2)=C(C)N1 | -0.3888
13 | COc1ccccc1NC(=O)C1=C(C)NC(C)=C(C(=O)Nc2ccccc2OC)C1c1cccc([N+](=O)[O-])c1 | 0.2498
14 | CC1=C(C(=O)Nc2ccc([N+](=O)[O-])cc2)C(c2ccc(Cl)cc2)C(C(=O)Nc2ccc([N+](=O)[O-])cc2)=C(C)N1 | 0.2126
15 | CC1=C(C(=O)Nc2ccccc2Cl)C(c2ccc(Cl)cc2)C(C(=O)Nc2ccccc2Cl)=C(C)N1 | -0.6886
16 | CSc1ccc(C2C(C(=O)Nc3ccccc3)=C(C)NC(C)=C2C(=O)Nc2ccccc2)cc1 | 0.3474
17 | COc1cc(C2C(C(=O)Nc3ccc(Cl)cc3)=C(C)NC(C)=C2C(=O)Nc2ccc(Cl)cc2)cc(OC)c1OC | 1.1949
18 | CSc1ccc(C2C(C(=O)Nc3ccc([N+](=O)[O-])cc3)=C(C)NC(C)=C2C(=O)Nc2ccc([N+](=O)[O-])cc2)cc1 | 1.5096
19 | CC1=C(C(=O)Nc2ccc(Cl)cc2)C(c2ccc(O)cc2)C(C(=O)Nc2ccc(Cl)cc2)=C(C)N1 | 0.575
20 | CC1=C(C(=O)Nc2ccccc2Cl)C(c2ccccc2Cl)C(C(=O)Nc2ccccc2Cl)=C(C)N1 | -0.6585
21 | COc1ccc(C2C(C(=O)Nc3cc(C)ccc3C)=C(C)NC(C)=C2C(=O)Nc2cc(C)ccc2C)cc1 | -0.158
22 | COc1ccccc1NC(=O)C1=C(C)NC(C)=C(C(=O)Nc2ccccc2OC)C1c1ccc(N(C)C)cc1 | 1.1233
23 | CC1=C(C(=O)Nc2cccc([N+](=O)[O-])c2)C(c2ccc(Cl)cc2Cl)C(C(=O)Nc2cccc([N+](=O)[O-])c2)=C(C)N1 | 1.6901
24 | CC1=C(C(=O)Nc2cc(C)ccc2C)C(c2ccccc2O)C(C(=O)Nc2cc(C)ccc2C)=C(C)N1 | -0.432
25 | COc1ccccc1NC(=O)C1=C(C)NC(C)=C(C(=O)Nc2ccccc2OC)C1c1ccc(Cl)cc1Cl | 1.0047
26 | CSc1ccc(C2C(C(=O)Nc3cccc([N+](=O)[O-])c3)=C(C)NC(C)=C2C(=O)Nc2cccc([N+](=O)[O-])c2)cc1 | 1.6901
27 | COc1ccccc1NC(=O)C1=C(C)NC(C)=C(C(=O)Nc2ccccc2OC)C1c1ccc(SC)cc1 | 1.1233
28 | CC1=C(C(=O)Nc2cccc([N+](=O)[O-])c2)C(c2ccccc2O)C(C(=O)Nc2cccc([N+](=O)[O-])c2)=C(C)N1 | 1.0606
29 | CSc1ccc(C2C(C(=O)Nc3ccccc3Cl)=C(C)NC(C)=C2C(=O)Nc2ccccc2Cl)cc1 | 0.55
30 | CC1=C(C(=O)Nc2ccc([N+](=O)[O-])cc2)C(c2ccccc2Cl)C(C(=O)Nc2ccc([N+](=O)[O-])cc2)=C(C)N1 | 1.2787

Reference: ChEMBL document CHEMBL1135978, “Three-dimensional quantitative structure-activity relationship of 1,4-dihydropyridines as antitubercular agents” (2002)
